Laboratory results as given in patent publication US8217051B2, “Spiroindolinone derivatives” (Hoffmann-La Roche Inc., priority 2009, dated 2012).
pIC50: −log10 of the molar value.

Molecular target: interaction between p53 and MDM2 proteins (Homo sapiens, UniProt Q00987)
Experiment: HTRF assay of inhibition of p53-MDM2 interaction (GST-MDM2 / biotinylated p53 peptide)
Assay type: binding
Details: 0.02% BSA
Method: The ability of the compounds to inhibit the interaction between p53 and MDM2 proteins was measured by an HTRF (homogeneous time-resolved fluorescence) assay in which recombinant GST-tagged MDM2 binds to a peptide that resembles the MDM2-interacting region of p53 (Lane et al.). Binding of GST-MDM2 protein and p53-peptide (biotinylated on its N-terminal end) is registered by the FRET (fluorescence resonance energy transfer) between Europium (Eu)-labeled anti-GST antibody and streptavidin-conjugated Allophycocyanin (APC).
Test is performed in black flat-bottom 384-well plates (Costar) in a total volume of […] containing:90 nM biotinylate peptide, 160 ng/ml GST-MDM2, 20 nM streptavidin-APC (PerkinElmerWallac), 2 nM Eu-labeled anti-GST-antibody (PerkinElmerWallac), 0.2% bovine serum albumin (BSA), 1 mM dithiothreitol (DTT) and 20 mM […] (TBS) buffer as follows: Add 10 uL of GST-MDM2 (640 ng/ml working solution) in reaction buffer to each well. Add 10 uL diluted compounds (1:5 dilution in reaction buffer) to each well, mix by shaking. Add 20 uL biotinylated p53 peptide (180 nM working solution) in reaction buffer to each well and mix on shaker. Incubate at 37° C. for 1 h. Add 20 uL streptavidin-APC and Eu-anti-GST antibody mixture (6 nM Eu-anti-GST and 60 nM streptavidin-APC working solution) in TBS buffer with 0.2% BSA, shake at room temperature for 30 minutes and read using a TRF-capable plate reader at 665 and 615 nm (Victor 5, Perkin ElmerWallac). If not specified, the reagents were purchased from Sigma Chemical Co.

Chain of interaction between p53 and MDM2 proteins (Q00987 whole entry): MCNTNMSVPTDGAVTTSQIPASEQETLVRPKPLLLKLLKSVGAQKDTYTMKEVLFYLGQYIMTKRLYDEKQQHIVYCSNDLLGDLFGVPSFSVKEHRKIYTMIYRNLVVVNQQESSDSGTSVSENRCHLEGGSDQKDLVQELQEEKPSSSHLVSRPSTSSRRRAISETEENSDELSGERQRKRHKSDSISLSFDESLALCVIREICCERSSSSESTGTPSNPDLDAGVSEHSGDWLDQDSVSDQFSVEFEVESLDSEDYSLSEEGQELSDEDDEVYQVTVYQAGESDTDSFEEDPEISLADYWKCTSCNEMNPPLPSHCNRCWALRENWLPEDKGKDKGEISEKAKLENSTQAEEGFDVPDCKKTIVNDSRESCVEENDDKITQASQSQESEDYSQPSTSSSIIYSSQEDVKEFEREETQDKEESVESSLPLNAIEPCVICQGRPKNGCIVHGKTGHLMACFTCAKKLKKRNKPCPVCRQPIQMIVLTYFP

Q: `O=C1C=C(c2cccc(Cl)c2)[C@]2(C(=O)Nc3cc(Cl)ccc32)[C@@H](c2cc(Cl)ccc2OC2CCOCC2)N1` (racemic) [Example 12, racemic(2′R,3R)-6-chloro-4′-(3-chloro-phenyl)-2′-[5-chloro-2-(tetrahydro-pyran-4-yloxy)-phenyl]-1′,3′-dihydrospiro[3H-indole-3,3′-pyridine]-2,6′(1H)-dione] was tested. Which pIC50 did it give?
A: The pIC50 was 6.56.

Q: `O=C1C=C(c2cccc(F)c2)[C@]2(C(=O)Nc3cc(Cl)ccc32)[C@@H](c2cc(Cl)ccc2OC2CCOCC2)N1` (racemic) [Example 16, racemic(2′R,3R)-6-chloro-2′-[5-chloro-2-(tetrahydro-pyran-4-yloxy)-phenyl]-4′-(3-fluoro-phenyl)-1′,3′-dihydrospiro[3H-indole-3,3′-pyridine]-2,6′(1H)-dione] was tested. Which pIC50 did it give?
A: Its pIC50 is 6.32.

Q: `Cc1ccc(F)cc1[C@H]1NC(=O)C=C(c2ccoc2)[C@]12C(=O)Nc1cc(Cl)ccc12` (racemic) [Example 32, racemic(2′R,3R)-6-chloro-2′-(5-fluoro-2-methyl-phenyl)-4′-(furan-3-yl)-1′,3′-dihydrospiro[3H-indole-3,3′(2′H)-pyridine]-2,6′(1H)-dione] was tested. Which pIC50 did it give?
A: The pIC50 was 5.28.

Q: How did the pIC50 turn out when `Cc1ccc(F)cc1[C@H]1NC(=O)C=C(c2cccnc2)[C@]12C(=O)Nc1cc(Cl)ccc12` (racemic) [Example 40, racemic(2′R,3R)-6-chloro-2′-(5-fluoro-2-methyl-phenyl)-4′-(pyridin-3-yl)-1′,3′-dihydrospiro[3H-indole-3,3′(2′H)-pyridine]-2,6′(1H)-dione] was run?
A: Its pIC50 is 5.19.

Q: With `Cc1ccc(F)cc1[C@H]1NC(=O)C=C(c2cccc(Cl)c2)[C@]12C(=O)Nc1cc(Cl)ccc12` [Example 6, chiral(2′R,3R)-6-chloro-4′-(3-chloro-phenyl)-2′-(5-fluoro-2-methyl-phenyl)-1′,3′-dihydrospiro[3H-indole-3,3′(2′H)-pyridine]-2,6′(1H)-dione] as the compound, how does the pIC50 read?
A: The pIC50 was 7.18.
